B1: BDNF: classical neurotrophic factor, used as an endogenous activator of the signalling pathway under investigation (protein, UniProt P23560 19-247, looked up)
Neurotrophic factor BDNF …: APMKEANIRGQGGLAYPGVRTHGTLESVNGPKAGSRGLTSLADTFEHVIEELLDEDQKVRPNEENNKDADLYTSRVMLSSQVPLEPPLLFLLEEYKNYLDAANMSMRVRRHSDPARRGELSVCDSISEWVTAADKKTAVDMSGGTVTVLEKVPVSKGQLKQYFYETKCNPMGYTKEGCRGIDKRHWNSQCRTTQSYVRALTMDSKKRIGWRFIRIDTSCVCTLTIKRGR

How the values were obtained:
[1] = system: dopaminergic TH-positive neurons injured with MPP+; experiment: MPP+ in vitro Parkinson's disease model, mitochondrial ROS in TH neurons at 4 hours (TH/ROS plate); format: cell-based, rat; details: CF3CN 10 nm to 1 μm, 1 h pre-incubation, MPP+ 4 μM, FIG. 1
Method: (§1) The ventral portion of the mesencephalic flexure, a region of the developing brain rich in dopaminergic neurons, was used for the cell preparations.
(§2) (solution at a final concentration of 0.05% trypsin and 0.02% EDTA). […] Cells were then mechanically dissociated by 3 passages through a 10 ml pipette. Cells were then centrifuged at 180×g for 10 min at +4° C. on a layer of BSA (3.5%) in L15 medium. […] Viable cells were counted in a Neubauer cytometer using the trypan blue exclusion test. […] Half of the medium was changed every 2 days with fresh medium.

[2] = system: primary SOD1 transgenic spinal cord motor neurons injured with glutamate; experiment: In vitro ALS model: glutamate-injured primary spinal motor neurons (MAP2/TDP43, 24 hours); format: cell-based, rat; details: for number of motor neurons: FIG. 5
Method: Cells were mechanically dissociated by three forced passages through the tip of a 10-ml pipette. Cells were then centrifuged at 515×g for 10 min at 4° C. […] Viable cells were counted in a Neubauer cytometer, using the trypan blue exclusion test. […] The medium was changed every 2 days.

[3] = system: dopaminergic TH-positive neurons injured with MPP+; experiment: MPP+ in vitro Parkinson's disease model, TH/αSyn plate at 48 hours (α-syn, DA neurons, neurites); format: cell-based, rat; details: MPP+ 4 μM
Method: as §1, §2
The cells were washed twice in PBS, and then permeabilized.

5XFAD mice = details: repeated administration, WO2020/033604; cited from earlier work

| Molecule | reduction of mitochondrial stress (ROS in TH(+) neurons) [1] | neurite network ([2]; CF3CN 10 and 100 nm, glutamate 5 μM 20 min, 24 hours, compared to the control, FIG. 6) | level of extranuclear TDP-43 versus the positive controls ([2]; CF3CN 10 nm and 100 nm, compared with Riluzole 5 μM and BDNF 50 ng/ml) | number of motor neurons ([2]; CF3CN 10 nm, 100 nm and 1 μm, glutamate 5 μM 20 min, 24 hours, compared to the control) | number of extranuclear TDP-43 ([2]; CF3CN all concentrations except the highest and the lowest (10 nM to 5 μM), glutamate 5 μM 20 min, 24 hours, FIG. 7) | level of neurites ([3]; CF3CN 1 nm to 1 μm, FIG. 4) | number of DA neurons ([3]; CF3CN 10 and 100 nm, FIG. 3) | level of α-syn ([3]; all dose levels (1 nM to 5 μM) except 10 μm, FIG. 2) | synaptic loss (5XFAD mice) | number of motor neurons ([2]; positive controls: Riluzole 5 μM, BDNF 50 ng/ml, glutamate 5 μM 20 min, 24 hours, compared to the control) |
| --- | --- | --- | --- | --- | --- | --- | --- | --- | --- | --- |
| N#Cc1ccc(-c2cc(=O)c3ccc4[nH]c(C(F)(F)F)nc4c3o2)cc1 [CF3CN, 4-(6-oxo-2-(trifluoromethyl)-3,6-dihydrochromeno[7,8-d]imidazol-8-yl)benzonitrile] | statistically significantly reduced ROS | increased the neurite network in a statistically significant manner | greater decrease in the level of extranuclear TDP-43 than the positive controls | statistically significant increase in the number of motor neurons | decreased the number of extranuclear TDP-43 in a statistically significant manner | increase the level of neurites | increase the number of DA neurons | statistically significantly reduce the level of α-syn | prevent synaptic loss |  |
| B1 |  |  |  |  |  |  |  |  |  | statistically significant increase in the number of motor neurons |
